Test results published in patent US20170298073A1, “SALTS, CO-CRYSTALS, AMORPHOUS FORMS, AND CRYSTALLINE FORMS OF A CO-ACTIVATOR-ASSOCIATED ARGININE METHYLTRANSFERASE 1 (CARM1) INHIBITOR” (Epizyme, Inc, priority 2014, published 2017).
Converted amounts (≈) assume the structure as drawn.

Test: Thermodynamic solubility at room temperature
Assay type: physicochemical
Details: 25 °C, thermodynamic from solid
Experimental: In an exemplary experiment, the thermodynamic solubilities of the solid forms described herein were determined at room temperature (RT, 25±3° C.).

Compound: CNC[C@@H](O)COc1ccc(Cl)c(-c2nc(-c3c(C)noc3C)c(C)c(N3CC4(CCN(C(=O)OC)CC4)C3)n2)c1 [Form A]
- solubility (organic solvent or mixture, solvent 1,4-Dioxane): > 40 mg/mL
- solubility (organic solvent or mixture, solvent 2-Methyl-tetrahydrofuran): > 50 mg/mL
- solubility (organic solvent or mixture, solvent Acetic acid): > 44 mg/mL
- solubility (organic solvent or mixture, solvent Acetone): > 48 mg/mL
- solubility (organic solvent or mixture, solvent Acetonitrile): > 42 mg/mL
- solubility (organic solvent or mixture, solvent CHCl3): > 38 mg/mL
- solubility (organic solvent or mixture, solvent Dichloromethane): > 36 mg/mL
- solubility (organic solvent or mixture, solvent Dimethyl sulfoxide): > 38 mg/mL
- solubility (organic solvent or mixture, solvent Dimethylacetamide): > 42 mg/mL
- solubility (organic solvent or mixture, solvent EtOAc): > 50 mg/mL
- solubility (organic solvent or mixture, solvent EtOH): > 40 mg/mL
- solubility (organic solvent or mixture, solvent Isopropanol): > 36 mg/mL
- solubility (organic solvent or mixture, solvent Isopropyl acetate): > 36 mg/mL
- solubility (organic solvent or mixture, solvent MeOH): > 38 mg/mL
- solubility (organic solvent or mixture, solvent Methyl isobutyl ketone): > 34 mg/mL
- solubility (organic solvent or mixture, solvent Methyl-tert-butyl ether): < 1.1 mg/mL
- solubility (organic solvent or mixture, solvent N-methyl-2-pyrrolidone): > 44 mg/mL
- solubility (organic solvent or mixture, solvent THF): > 36 mg/mL
- solubility (organic solvent or mixture, solvent Toluene): > 38 mg/mL
- solubility (organic solvent or mixture, solvent n-Heptane): < 1.1 mg/mL
- solubility (organic solvent or mixture, solvent n-Heptane/THF (1:1 by volume)): 14 to 21 mg/mL (≈ 23.9 to 35.9 mM)
- solubility (organic solvent or mixture, solvent n-Heptane/THF (1:2 by volume)): > 42 mg/mL
- solubility (organic solvent or mixture, solvent n-Heptane/THF (1:3 by volume)): > 40 mg/mL
- solubility (organic solvent or mixture, solvent n-Heptane/THF (2:1 by volume)): 2.6 to 3 mg/mL (≈ 4.44 to 5.13 mM)
- solubility (organic solvent or mixture, solvent n-Heptane/THF (4:1 by volume)): < 1.6 mg/mL
- solubility (water, solvent H2O): < 1.1 mg/mL
